Source: patent publication US20240368135A1 (VERTEX PHARMACEUTICALS INCORPORATED, priority 2021, published 2024)
pIC50: −log10 of the molar value. Read-outs that look alike come from different tables or passages of the source.

Molecular target: human NaV 1.8 (Homo sapiens, UniProt Q9Y5Y9)
Assay: E-VIPR assay detecting and measuring NaV inhibition properties
Format: cell-based
Details: HEK cells expressing truncated human NaV 1.8
Procedure, shortened: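 Membrane potential was followed by coumarin/oxonol FRET during electrical field stimulation of matrigel-seeded HEK cells carrying truncated human NaV1.8 plus KIR2.1. Dosing used 11 points, 3-fold steps, top 300 nM final, 0.625% DMSO, with or without 25% human serum.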

[1] = no human serum, read-out: IC50 in the E-VIPR Assay

human NaV 1.8, sequence (Q9Y5Y9 126-399 limits assumed): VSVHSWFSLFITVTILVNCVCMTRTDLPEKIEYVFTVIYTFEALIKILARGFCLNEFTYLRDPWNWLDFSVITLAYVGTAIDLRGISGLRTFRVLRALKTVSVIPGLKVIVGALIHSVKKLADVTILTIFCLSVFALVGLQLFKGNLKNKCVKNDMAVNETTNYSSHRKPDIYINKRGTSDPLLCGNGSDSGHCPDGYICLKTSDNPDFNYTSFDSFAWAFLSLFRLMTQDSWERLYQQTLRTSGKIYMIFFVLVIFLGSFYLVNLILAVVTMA
human NaV 1.8, sequence (Q9Y5Y9 660-890 limits assumed): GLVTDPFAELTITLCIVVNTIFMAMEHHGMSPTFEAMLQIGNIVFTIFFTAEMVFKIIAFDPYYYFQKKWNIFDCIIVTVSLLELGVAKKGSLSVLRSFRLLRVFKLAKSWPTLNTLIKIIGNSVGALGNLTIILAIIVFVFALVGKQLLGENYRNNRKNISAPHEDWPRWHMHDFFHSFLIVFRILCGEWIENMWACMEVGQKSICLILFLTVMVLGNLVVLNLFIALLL
human NaV 1.8, sequence (Q9Y5Y9 1148-1722 limits assumed): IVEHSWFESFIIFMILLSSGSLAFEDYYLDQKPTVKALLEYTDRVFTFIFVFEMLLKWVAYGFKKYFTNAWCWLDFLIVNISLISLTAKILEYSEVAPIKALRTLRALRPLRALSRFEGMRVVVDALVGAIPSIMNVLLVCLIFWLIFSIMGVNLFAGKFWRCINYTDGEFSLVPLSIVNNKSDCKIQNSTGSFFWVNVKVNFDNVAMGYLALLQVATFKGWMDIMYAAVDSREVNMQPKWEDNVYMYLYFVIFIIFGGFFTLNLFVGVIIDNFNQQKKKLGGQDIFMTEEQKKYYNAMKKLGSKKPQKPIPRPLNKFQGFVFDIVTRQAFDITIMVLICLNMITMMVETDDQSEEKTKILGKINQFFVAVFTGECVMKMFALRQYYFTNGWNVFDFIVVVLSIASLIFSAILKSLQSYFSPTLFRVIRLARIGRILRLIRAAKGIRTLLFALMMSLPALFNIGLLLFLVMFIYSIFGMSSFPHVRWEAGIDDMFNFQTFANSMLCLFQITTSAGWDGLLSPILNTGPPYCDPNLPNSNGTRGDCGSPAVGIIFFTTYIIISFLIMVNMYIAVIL

Row | SMILES | pIC50 [1] | pIC50 (in the presence of human serum (compound numbers followed by *), read-out: IC50 in the E-VIPR Assay, performed in the presence of human serum)
1 | COc1c([C@H]2[C@H](C(=O)NCCc3ncc[nH]3)O[C@@](C)(C(F)(F)F)[C@H]2C)ccc(F)c1F [Compound 272, (2R,3S,4S,5R)-3-(3,4-difluoro-2-methoxy-phenyl)-N-[2-(1H-imidazol-2-yl)ethyl]-4,5-dimethyl-5-(trifluoromethyl)tetrahydrofuran-2-carboxamide] | ≤ 6.00 | –
2 | COc1c([C@H]2[C@H](C(=O)Nc3cnc(C)n3C)O[C@@](C)(C(F)(F)F)[C@H]2C)ccc(F)c1F [Compound 447, (2R,3S,4S,5R)-3-(3,4-difluoro-2-methoxy-phenyl)-N-(2,3-dimethylimidazol-4-yl)-4,5-dimethyl-5-(trifluoromethyl)tetrahydrofuran-2-carboxamide] | 7.00 to 8.00 | –
3 | CNC1CCN(c2cc(NC(=O)[C@@H]3O[C@@](C)(C(F)(F)F)[C@@H](C)[C@H]3c3ccc(F)c(F)c3OC)ccn2)C1=O (single isomer, unassigned) [Compound 501, rel-(2R*,3S*,4S*,5R*)-3-(3,4-difluoro-2-methoxyphenyl)-4,5-dimethyl-N-(2-(3-(methylamino)-2-oxopyrrolidin-1-yl)pyridin-4-yl)-5-(trifluoromethyl)tetrahydrofuran-2-carboxamide] | 7.00 to 8.00 | –
4 | COc1c([C@@H]2[C@H](C)[C@H](C)O[C@H]2C(=O)Nc2ccnc(C(O)CO)c2)ccc(F)c1F (relative stereo) [Compound 718, rel-(2R,3S,4S,5S)-3-(3,4-difluoro-2-methoxyphenyl)-N-(2-(1,2-dihydroxyethyl)pyridin-4-yl)-4,5-dimethyltetrahydrofuran-2-carboxamide] | 6.00 to 7.00 | –
5 | COc1c([C@@H]2[C@@H](C(=O)Nc3ccc4cnnn4c3)O[C@](C)(C(F)(F)F)[C@@H]2C)ccc(F)c1C(F)F (stereo in doubt) [Compound 160, rel-(2S,3R,4R,5S)-N-([1,2,3]triazolo[1,5-a]pyridin-6-yl)-3-(3-(difluoromethyl)-4-fluoro-2-methoxyphenyl)-4,5-dimethyl-5-(trifluoromethyl)tetrahydrofuran-2-carboxamide] | 6.00 to 7.00 | –
6 | C[C@H]1[C@@H](c2ccc(F)c(F)c2OC(F)F)[C@H](C(=O)Nc2ccnc(CC(C)(C)O)c2)O[C@@]1(C)C(F)(F)F (single isomer, unassigned) [Compound 464] | 7.00 to 8.00 | –
7 | COc1c([C@H]2[C@H](C(=O)Nc3ccc(-c4ccccn4)nc3)O[C@@](C)(C(F)(F)F)[C@H]2C)ccc(F)c1F [Compound 396, (2R,3S,4S,5R)-N-([2,2′-bipyridin]-5-yl)-3-(3,4-difluoro-2-methoxyphenyl)-4,5-dimethyl-5-(trifluoromethyl)-tetrahydrofuran-2-carboxamide] | ≤ 6.00 | –
8 | COc1c([C@H]2[C@H](C(=O)Nc3ccc(C[C@@H](O)CO)nc3)O[C@@](C)(C(F)(F)F)[C@H]2C)ccc(F)c1F [Compound 334, (2R,3S,4S,5R)-3-(3,4-difluoro-2-methoxy-phenyl)-N-[6-[(2R)-2,3-dihydroxypropyl]-3-pyridyl]-4,5-dimethyl-5-(trifluoromethyl)tetrahydrofuran-2-carboxamide] | 7.00 to 8.00 | –
9 | COc1c([C@H]2[C@H](C(=O)Nc3cn(C)cn3)O[C@@](C)(C(F)(F)F)[C@H]2C)ccc(F)c1F [Compound 318, (2R,3S,4S,5R)-3-(3,4-difluoro-2-methoxyphenyl)-4,5-dimethyl-N-(1-methyl-1H-imidazol-4-yl)-5-(trifluoromethyl)-tetrahydrofuran-2-carboxamide] | ≤ 6.00 | –
10 | COc1c(C2C(C(=O)Nc3ccncn3)OC(C)(C(F)(F)F)C2C)ccc(F)c1F (single isomer, unassigned) [Compound 35, 3-(3,4-difluoro-2-methoxy-phenyl)-4,5-dimethyl-N-pyrimidin-4-yl-5-(trifluoromethyl)tetrahydrofuran-2-carboxamide] | ≤ 6.00 | –
11 | COCC(O)c1cc(NC(=O)[C@@H]2O[C@@](C)(C(F)(F)F)[C@@H](C)[C@H]2c2ccc(F)c(F)c2OCCN2CC3CC(C2)O3)ccn1 (single isomer, unassigned) [Compound 610, rel-(2R*,3S*,4S*,5R*)-3-(2-(2-(6-oxa-3-azabicyclo[3.1.1]heptan-3-yl)ethoxy)-3,4-difluorophenyl)-N-(2-(1-hydroxy-2-methoxyethyl)pyridin-4-yl)-4,5-dimethyl-5-(trifluoromethyl)tetrahydrofuran-2-carboxamide] | 7.00 to 8.00 | –
12 | COc1c([C@H]2[C@H](C(=O)Nc3ccnc(N4CC(N(C)C)CC4=O)c3)O[C@@](C)(C(F)(F)F)[C@H]2C)ccc(F)c1F (single isomer, unassigned) [Compound 505, rel-(2R*,3S*,4S*,5R*)-3-(3,4-difluoro-2-methoxyphenyl)-N-(2-(4-(dimethylamino)-2-oxopyrrolidin-1-yl)pyridin-4-yl)-4,5-dimethyl-5-(trifluoromethyl)tetrahydrofuran-2-carboxamide] | 7.00 to 8.00 | –
13 | COCCNCc1cc(NC(=O)C2OC(C)(C(F)(F)F)C(C)C2c2ccc(F)c(F)c2OC)ccn1 (stereo not drawn) [Compound 59, 3-(3,4-difluoro-2-methoxy-phenyl)-N-[2-[(2-methoxyethylamino)methyl]-4-pyridyl]-4,5-dimethyl-5-(trifluoromethyl)tetrahydrofuran-2-carboxamide] | ≤ 6.00 | –
14 | Cc1nocc1NC(=O)[C@@H]1O[C@@](C)(C(F)(F)F)[C@@H](C)[C@H]1c1ccc(F)c(F)c1OC[C@H](C)N1CC2(COC2)C1 [Compound 623, (2R,3S,4S,5R)-3-[3,4-difluoro-2-[(2S)-2-(2-oxa-6-azaspiro[3.3]heptan-6-yl)propoxy]phenyl]-4,5-dimethyl-N-(3-methylisoxazol-4-yl)-5-(trifluoromethyl)tetrahydrofuran-2-carboxamide] | 7.00 to 8.00 | –
15 | COc1c([C@H]2[C@H](C(=O)NCCN3CCNC(=O)C3)O[C@@](C)(C(F)(F)F)[C@H]2C)ccc(F)c1F [Compound 302, (2R,3S,4S,5R)-3-(3,4-difluoro-2-methoxyphenyl)-4,5-dimethyl-N-(2-(3-oxopiperazin-1-yl)ethyl)-5-(trifluoromethyl)tetrahydrofuran-2-carboxamide] | ≤ 6.00 | –
16 | COc1c([C@H]2[C@H](C(=O)Nc3ccnc(N4C[C@@H](C)NCC4=O)c3)O[C@@](C)(C(F)(F)F)[C@H]2C)ccc(F)c1F [Compound 480, (2R,3S,4S,5R)-3-(3,4-difluoro-2-methoxyphenyl)-4,5-dimethyl-N-(2-((R)-5-methyl-2-oxopiperazin-1-yl)pyridin-4-yl)-5-(trifluoromethyl)tetrahydrofuran-2-carboxamide] | > 8.00 | –
17 | COc1c([C@H]2[C@H](C(=O)Nc3ccnc([S+](C)[O-])c3)O[C@@](C)(C(F)(F)F)[C@H]2C)ccc(F)c1F (single isomer, unassigned) [Compound 9] | – | > 8.00
18 | C[C@@H]1[C@H](c2ccc(F)c(F)c2)[C@@H](C(=O)Nc2ccnc(S(C)(=O)=O)c2)O[C@]1(C)C(F)(F)F (stereo in doubt) [Compound 154, rel-(2S,3R,4R,5S)-3-(3,4-difluorophenyl)-4,5-dimethyl-N-(2-(methylsulfonyl)pyridin-4-yl)-5-(trifluoromethyl)tetrahydrofuran-2-carboxamide] | ≤ 6.00 | –
